Test results reported in ChEMBL document CHEMBL4706679, “Targeting Necrosis: Elastase-like Protease Inhibitors Curtail Necrotic Cell Death Both In Vitro and in Three In Vivo Disease Models” (J Med Chem, 2021).
Calls of active or inactive are those of the source. No cut-off for these calls is given here. Where a SMILES comes first, the peptide text is derived from it. The star is where a group is joined. MeOSuc = COC(=O)CCC(=O)*; Cbz = O=C(OCc1ccccc1)*; CH2Cl = ClC*

What was measured:
U-937 [1] = experiment: Inhibition anti-Fas antibody-induced elastase like activity in human U-937 cells at 100 uM by substrate gel electrophoresis; format: cell-based
U-937 [2] = experiment: Inhibition oligomycin-induced elastase like activity in human U-937 cells at 100 uM by substrate gel electrophoresis; format: cell-based
U-937 [3] = experiment: Inhibition KCN-induced elastase like activity in human U-937 cells using substrate MAAPV; format: cell-based
PC-12 [4] = experiment: Protection against KCN-induced necrosis in […] cells assessed as reduction in KCN-induced cell death at 10 to 300 uM incubated for 5 hrs by LDH release assay; format: functional, cell-based; details: dose 10-300 µM
Mus musculus [5] = experiment: Protection against necrosis in C57BL/6J mouse model of paracetamol-induced […] assessed as reduction in liver GOT levels at 10 mg/kg, ip dosed 4 hrs after paracetamol injection and measured 24 hrs post paracetamol injection by; format: functional, organism-based; details: time 28.0 hrs
Mus musculus [6] = experiment: Protection against necrosis in C57BL/6J mouse model of paracetamol-induced […] assessed as reduction in liver ALT levels at 10 mg/kg, ip dosed 4 hrs after paracetamol injection and measured 24 hrs post paracetamol injection by; format: functional, organism-based; details: time 28.0 hrs
Mus musculus [7] = experiment: Protection against necrosis in C57BL/6J mouse model of paracetamol-induced […] assessed as reduction in liver GOT levels at 30 mg/kg, ip dosed 4 hrs after paracetamol injection and measured 24 hrs post paracetamol injection by; format: functional; set-up: scale not given: the % may be the effect or the level left; details: time 28 hrs
Mus musculus [8] = experiment: Protection against necrosis in C57BL/6J mouse model of paracetamol-induced […] assessed as reduction in liver AST levels at 10 mg/kg, ip dosed 4 hrs after paracetamol injection and measured 24 hrs post paracetamol injection by; format: functional, organism-based; details: time 28.0 hrs
Mus musculus [9] = experiment: Protection against necrosis in C57BL/6J mouse model of paracetamol-induced […] assessed as reduction in liver GPT levels at 30 mg/kg, ip dosed 4 hrs after paracetamol injection and measured 24 hrs post paracetamol injection by; format: functional; set-up: scale not given: the % may be the effect or the level left; details: time 28 hrs
Mus musculus [10] = experiment: Protection against necrosis in C57BL/6J mouse model of paracetamol-induced […] assessed as reduction in liver AST levels at 30 mg/kg, ip dosed 4 hrs after paracetamol injection and measured 24 hrs post paracetamol injection by; format: functional; set-up: scale not given: the % may be the effect or the level left; details: time 28 hrs
Mus musculus [11] = experiment: Protection against necrosis in C57BL/6J mouse model of paracetamol-induced […] assessed as reduction in liver GPT levels at 10 mg/kg, ip dosed 4 hrs after paracetamol injection and measured 24 hrs post paracetamol injection by; format: functional, organism-based; details: time 28.0 hrs
Mus musculus [12] = experiment: Protection against necrosis in C57BL/6J mouse model of paracetamol-induced […] assessed as reduction in liver ALT levels at 30 mg/kg, ip dosed 4 hrs after paracetamol injection and measured 24 hrs post paracetamol injection by; format: functional; set-up: scale not given: the % may be the effect or the level left; details: time 28 hrs
PC-12 [13] = experiment: Protection against KCN-induced necrosis in […] cells assessed as reduction in KCN-induced cell death at 20 to 100 uM incubated for 5 hrs by LDH release assay; format: functional, cell-based; details: dose 20-100 µM
Mus musculus [14] = experiment: Protection against necrosis in Balb/c mouse model of model of myocardial infarction/reperfusion assessed as reduction in infarct size at 30 mg/kg, iv followed by ischemia and reperfusion and subsequent second dosing at 30 mg/kg, iv and measured after 6 hrs post reperfusion by TTC staining based analysis; format: functional; set-up: scale not given: the % may be the effect or the level left; details: dose 60 mg/kg
[15] = Toxicity in sham control C57BL/6J mouse at 100 ug, icv; details: in vivo, icv_or_intrathecal, dose 100 µg
U-937 [16] = experiment: (§1) Inhibition KCN-induced elastase like activity in human U-937 cells at 0.01 to 100 uM using substrate MAAPV; format: cell-based; details: dose 0.01-100 µM
[17] = as §1; format: cell-based
Mus musculus [18] = experiment: Protection against necrosis in C57BL/6J mouse model of traumatic brain injury assessed as decrease in necrotic space in brains at 100 ug, icv measured 24 hrs post injury by TTC staining based analysis; format: functional; set-up: scale not given: the % may be the effect or the level left; details: dose 100 µg
Mus musculus [19] = experiment: Protection against necrosis in C57BL/6J mouse model of traumatic brain injury assessed as decrease in neuronal damage in brain at 100 ug, icv measured 1 hr post injury by neurological severity score based analysis; format: functional, organism-based; details: dose 100.0 µg

Cc1ccc(S(=O)(=O)N[C@@H](Cc2ccccc2)C(=O)CCl)cc1
inhibition (U-937 [1]): inactive | inhibition (U-937 [2]): inactive

CCOC(=O)[C@H]1O[C@@H]1C(=O)N[C@@H](CC(C)C)C(=O)NCCC(C)C
inhibition (U-937 [3]): inactive

CN1C(=O)Cc2ccc(-c3ccc(C[C@@H](C#N)NC(=O)[C@H]4N[C@@H]5CC[C@H]4C5)c(F)c3)cc21
Activity (PC-12 [4]): Dose-dependent effect

O=C(c1csc(N2CCCCC2)n1)N1CCCC1
Activity (Mus musculus [5]): Active | Activity (Mus musculus [6]): Active | Activity (Mus musculus [7]): 100% | Activity (Mus musculus [8]): Active | Activity (Mus musculus [9]): 100% | Activity (Mus musculus [10]): 100% | Activity (Mus musculus [11]): Active | Activity (Mus musculus [12]): 100%

O=C[C@H](Cc1ccc(O)cc1)NC(=O)[C@H](Cc1ccccc1)NC(=O)OCc1ccccc1 (Cbz-Phe-Tyr-aldehyde)
inhibition (U-937 [3]): inactive

CC(C)(C)C(=O)Oc1ccc(S(=O)(=O)Nc2ccccc2C(=O)NCC(=O)O)cc1
Activity (PC-12 [13]): Dose-dependent effect

CC(C)C[C@H](NC(=O)N[C@H](C(=O)N[C@@H](CCC(N)=O)C(=O)N[C@@H](C)C=O)C1CCNC(=N)N1)C(=O)O (some centres undefined)
inhibition (U-937 [1]): Active | inhibition (U-937 [2]): Active | Activity (PC-12 [4]): inactive

CCC(=O)N1CCN=C1N1CCN(C)CC1
Activity (Mus musculus [14]): 30%

COC(=O)CCC(=O)N[C@@H](C)C(=O)N[C@@H](C)C(=O)N1CCC[C@H]1C(=O)N[C@H](C(=O)CCl)C(C)C (MeOSuc-AAPV-CH2Cl)
Activity [15]: Non-Toxic | inhibition (U-937 [16]): Dose-dependent effect | IC50 [17]: 2.74 µM | Activity (Mus musculus [18]): 50% | Activity (Mus musculus [19]): Active | Activity (PC-12 [4]): Dose-dependent effect
